Experimental data from US10093716B2, “Methods for treating cancer” (UCL BUSINESS PLC, priority 2013, dated 2018).

B1: TRAIL: recombinant iz-TRAIL produced in E. coli, LPS-free after purification (protein)
chain: MAMMEVQGGPSLGQTCVLIVIFTVLLQSLCVAVTYVYFTNELKQMQDKYSKSGIACFLKEDDSYWDPNDEESMNSPCWQVKWQLRQLVRKMILRTSEETISTVQEKQQNISPLVRERGPQRVAAHITGTRGRSNTLSSPNSKNEKALGRKINSWESSRSGHSFLSNLHLRNGELVIHEKGFYYIYSQTYFRFQEEIKENTKNDKQMVQYIYKYTSYPDPILLMKSARNSCWSKDAEYGLYSIYQGGIFELKENDRIFVSVTNEHLIDMDHEASFFGAFLVG

Assays:
A549-luc cells = assay: Experimental lung metastasis model, A549-luc cells injected into tail vein; assay type: in vivo, SCID beige mice; details: 0.5 mg/mouse i.p., 3× per week starting 1 day after cell injection; bioluminescence after 2 weeks; FIG. 3D
Procedure: FIGS. 3A-3D| KRAS-mutated cells require autocrine TRAIL-R2-mediated migration for metastasis formation. FIG. 3A, 2×10^6 A549-luc cells infected with shTRAIL-R2 or control vector were injected into the tail vein of SCID beige mice. Metastatic burden in the lungs was detected after three weeks by quantification of bioluminescence (Photons/second). Three representative mice from each group are shown (n=9/group). FIG. 3B, FIG. 3C Five lungs from each group that were closest to the average value of the respective group in the H&E quantification were subjected to further Ki67 and TUNEL stainings and quantified as Ki67 and TUNEL positive area within tumor nodules, respectively. Representative images are shown. FIG. 3D, A549-luc parental cells were injected as in FIG. 3A, mice were treated with Vehicle (PBS) or 0.5 mg TRAIL-R2-Fc/mouse starting the next day, 3× per week.
Bioluminescence was determined after 2 weeks, representative mice are shown (n=8/group). Arrows indicate Ki67/TUNEL-positive cells. Dots represent individual lungs. Values are means+/−SEM; ns, not significant; * P<0.05 Student's t-test.
Animal Models. […] Photons per second (Photon Flux) were quantified using the Ivis Spectrum software. […] After one week, tumours were palpable and their size was measured by caliper. […]

A549 cells = assay: xCELLigence migration assay, A549; assay type: cell-based, human; details: 100 μg/ml recombinant receptor-Fc protein during migration, FIG. 1F
Procedure: siRNA-mediated knockdown. Knockdown experiments were performed by transient transfection of RISC-free control siRNA, siRNA pools or single sequences (Dharmacon) to silence the indicated proteins using Dharmafect I (Dharmacon) following the instruction manual. All cell lines were incubated for 48 h to achieve sufficient knockdown.
Migration assays. Migration assays were performed using the xCELLigence System (Roche) according to manufacturer's instructions. See Supplementary Methods for detailed description.
Migration assays were performed using the xCELLigence System (Roche) that uses specially designed microtiter plates containing gold microelectrodes to measure electrical impedance of cells adhering to electrodes in real time. Increased impedance of background control wells was subtracted from all other values, the increase in electrical impedance/migration of control siRNA-transfected/control vector-infected cells was then defined as 100% migration and relative migration of all other transfected samples was calculated as compared to control-transfected cells, accordingly. Migration plates (CIM 16) are based on the Boyden chamber principle, the lower surface of the filter is covered with microelectrodes measuring cells that have migrated through the pores and adhere to the lower surface of the filter in real time. […]

Rac1 [1] = assay: Rac1 pulldown assay (GTP-bound Rac1, PAK1-beads), isogenic DLD-1 and DKO4; assay type: cell-based, human; details: isogenic KRAS-mutated DLD-1 versus KRAS-WT DKO4, iz-TRAIL 100 ng/ml; FIG. 7E
Procedure: FIGS. 7A-7F| Autocrine migration is independent of the DISC but requires Rac1. FIG. 7A, FADD-deficient clones 10, 41 and 50 were transfected with the indicated siRNAs and subjected to migration assays. FIG. 7B, Control vector-infected or shTRAIL-R2-infected A549 cells were fixed and stained using Texas red-coupled phalloidin and DAPI. Representative confocal images are shown (×400).c, A549 cells were treated with DMSO, PD98059 (10 μM), PIK75 (100 nM) or NSC23766 (100 μM) and subjected to migration assays. FIG. 7D, A549 cells were transfected with the indicated siRNAs and subjected to migration assays. FIG. 7E, Isogenic DLD-1 and DKO4 cells were treated with iz-TRAIL (100 ng/ml) for the indicated times and then subjected to pulldown of GTP-bound Rac1 using PAK1-beads (Millipore-Rac1 activation kit). FIG. 7F, KRAS-WT DKO4 cells were transfected with the indicated siRNAs and prior to migration treated with vehicle (H2O) or 10 μM Y27632. Representative Western blots are shown.
2.5×10^6 cells were seeded into 10 cm dishes. The next day, cells were incubated with and without 100 ng/ml iz-TRAIL. Cell lysis and Rac1 pulldown was performed using a Rac1-pulldown kit (Millipore) according to the manufacturer's instructions. Proteins were separated by SDS-PAGE (NuPAGE) and analyzed by Western blotting.

Rac1 [2] = assay: Rac1 pulldown assay (GTP-bound Rac1, PAK1-beads), A549; assay type: cell-based, human; details: A549 cells, iz-TRAIL 100 ng/ml; FIG. 8E
Procedure: FIGS. 8A-8J| Autocrine TRAIL is required for caspase-independent migration and Rac1 activation. FIG. 8A, DLD-1 cells were transfected with the indicated siRNAs and subjected to migration assays. FIG. 8B, A549 cells were treated with DMSO or 10 μM zVAD-fmk and were subsequently subjected to migration assays. FIG. 8C, Dominant negative FADD (dnFADD)-overexpressing DLD-1 cells were transfected with the indicated siRNAs and subjected to migration assays. FIG. 8D, Parental and DLD-1 cells overexpressing dnFADD were treated with 1 μg/ml iz-TRAIL for the indicated times, subsequently lysed and subjected to Western blot analysis. FIG. 8E, A549 cells were treated with iz-TRAIL (100 ng/ml) for the indicated times and subjected to pulldown of GTP-bound Rac1 using PAK1-beads (Millipore-Rac1 activation kit). Cell lysates were subsequently analyzed by Western blotting. FIG. 8F, Control or shTRAIL-R2-infected A549 cells were subjected to pulldown of GTP-bound Rac1 as in FIG. 8E. FIG. 8G, A549 cells were transfected with the indicated siRNAs and subjected to migration assays. FIG. 8H, KRAS-mutated (DLD-1, HCT116) and isogenic KRAS-WT (DKO4, Hkh-2) cell lines were lysed and subjected to Western blotting. FIG. 8I, KRAS-mutated H460 cells were transfected with the indicated siRNAs. […]
2.5×10^6 cells were seeded into 10 cm dishes. […] Proteins were separated by SDS-PAGE (NuPAGE) and analyzed by Western blotting.

Molecule	metastasis (metastatic burden in lungs, bioluminescence) (A549-luc cells)	migration (normalized to PBS-treated cells) (A549 cells)	Rac1 activation (GTP-bound Rac1 pulldown) (Rac1 [1])	Rac1 activation (GTP-bound Rac1 pulldown) (Rac1 [2])
TRAIL-R2-Fc fusion protein: majority of the extracellular domain of human TRAIL-R2 fused to the Fc portion of human IgG1 (SEQ ID NO: 15); TRAIL-inhibiting	significantly reduced metastasis	suppressed migration to a similar extent	–	–
B1	–	–	only capable of doing so in KRAS-mutated cells	able to activate Rac1
